SMILES strings stand for the structures. The source made the active and inactive calls. The calls are words filed in the database; no cut-off is given here.

In data set [1] the test system is Peritoneal macrophage. The data set is described as follows: Antiinflammatory activity in ICR mouse primary peritoneal macrophages assessed as inhibition of LPS-induced TNFalpha production at 20 uM preincubated for 60 mins followed by LPS stimulation and measured after 24 hrs by ELISA relative to control. Type of data set: functional. (In general: ELISA stands for enzyme-linked immunosorbent assay.)

Data set [2] deals with Peritoneal macrophage. Put plainly: Antiinflammatory activity in ICR mouse primary peritoneal macrophages assessed as inhibition of LPS-induced IL-6 production at 20 uM preincubated for 60 mins followed by LPS stimulation and measured after 24 hrs by ELISA relative to control. Type of data set: functional.
Data set [3] has as its system Peritoneal macrophage. The data set is described as follows: Antiinflammatory activity in ICR mouse primary peritoneal macrophages assessed as inhibition of LPS-induced IL-6 production preincubated for 2 hrs followed by LPS stimulation and measured after 22 hrs by ELISA. Type of data set: functional, cell-based.
Data set [4] is described as follows: Cytotoxicity against rat H9c2 cells assessed as cell viability at 20 uM after 24 hrs by MTT assay relative to control. Type of data set: cell-based. As to conditions: read-out: Activity. A general note: Tetrazolium assays rely on reduction of a dye to a coloured formazan, in cell work by metabolically active cells.
Data set [5] in a line: Cytotoxicity against rat NRK cells assessed as cell viability at 20 uM after 24 hrs by MTT assay relative to control. Type of data set: cell-based. The note with it: read-out: Activity.
Data set [6] concerns Peritoneal macrophage. The data set is described as follows: Antiinflammatory activity in ICR mouse primary peritoneal macrophages assessed as inhibition of LPS-induced TNFalpha production preincubated for 2 hrs followed by LPS stimulation and measured after 22 hrs by ELISA. Type of data set: functional, cell-based.
Data set [7] is described as follows: Cytotoxicity against ICR mouse primary peritoneal macrophages assessed as cell viability at 20 uM after 24 hrs by MTT assay relative to control. Type of data set: cell-based, Peritoneal macrophage. As to conditions: read-out: Activity.

Consider `N#Cc1cccc(CN2CCN(CCC(=O)Nc3nc(-c4ccccc4)cs3)CC2)c1`, for which the inhibition at 20 µM with Peritoneal macrophage [1] was 52.3%; in the data set on Peritoneal macrophage [2], 78.3%.

Take `O=C(CCN1CCN(Cc2cccc([N+](=O)[O-])c2)CC1)Nc1nc(-c2ccc([N+](=O)[O-])cc2)cs1`: the inhibition at 20 µM in the data set on Peritoneal macrophage [1] turned out to be 32.4%; in the data set with Peritoneal macrophage [2], 58.8%.

With `Nc1ccc(CN2CCN(CCC(=O)Nc3nc(-c4ccccc4)cs3)CC2)cc1`, the inhibition at 20 µM was 10.1% in the data set with Peritoneal macrophage [1] and 45.8% in the data set with Peritoneal macrophage [2].

With `O=C(CCN1CCN(S(=O)(=O)c2ccc([N+](=O)[O-])cc2)CC1)Nc1nc(-c2ccccc2)cs1`, the figures for the inhibition at 20 µM in the data set on Peritoneal macrophage [1] and in the data set with Peritoneal macrophage [2] were 38.6% and 40.6%, respectively.

As for `COc1ccc(CN2CCN(CCC(=O)Nc3nc(-c4ccccc4)cs3)CC2)cc1`, the inhibition at 20 µM worked out at 40.2% with Peritoneal macrophage [1] and 75.3% in the data set on Peritoneal macrophage [2].

As for `COc1cccc(CN2CCN(CCC(=O)Nc3nc(-c4ccccc4)cs3)CC2)c1`, the inhibition at 20 µM in the data set on Peritoneal macrophage [1] was determined as 36.1%; with Peritoneal macrophage [2], 53.8%.

For the molecule `O=C(CCN1CCN(Cc2cccc([N+](=O)[O-])c2)CC1)Nc1nc2ccccc2s1`, the figures for the inhibition at 20 µM in the data set with Peritoneal macrophage [1] and in the data set with Peritoneal macrophage [2] were 63.6% and 64.2%, respectively.

In the case of `COc1ccc(-c2csc(NC(=O)CCN3CCN(Cc4cccc([N+](=O)[O-])c4)CC3)n2)cc1OC`, the results for the IC50 in the data set on Peritoneal macrophage [3] and in the data set with Peritoneal macrophage [6] were 3.15 µM and 1.77 µM, respectively. Moreover, the inhibition entry with Peritoneal macrophage [3] and in the data set with Peritoneal macrophage [6] was “Dose-dependent effect” in each case. The values for the inhibition at 20 µM in the data set on Peritoneal macrophage [1] and with Peritoneal macrophage [2] were 87.6% and 90.2%, respectively. The viability at 24 h, 20 µM in data set [4], in data set [5] and in data set [7] was greater than 80% throughout.

Regarding `O=C(CCN1CCN(Cc2ccc3ccccc3c2)CC1)Nc1nc(-c2ccccc2)cs1`, the inhibition at 20 µM in the data set with Peritoneal macrophage [1] was 2.41%; in the data set on Peritoneal macrophage [2], 18.3%.

For `CN1CCN(CCC(=O)Nc2nc(-c3ccccc3)cs2)CC1`, the inhibition entry in the data set on Peritoneal macrophage [1] and with Peritoneal macrophage [2] was “inactive” each time.

`Nc1cccc(CN2CCN(CCC(=O)Nc3nc(-c4ccccc4)cs3)CC2)c1`: the inhibition at 20 µM amounted to 13.6% in the data set with Peritoneal macrophage [1] and 11.5% in the data set with Peritoneal macrophage [2].

For `O=C(CCN1CCN(Cc2c(Cl)cccc2Cl)CC1)Nc1nc(-c2ccccc2)cs1`, the inhibition at 20 µM in the data set with Peritoneal macrophage [1] is 37.1%; in the data set with Peritoneal macrophage [2], 73.8%.

Turning to `O=C(CCN1CCN(Cc2cccc(F)c2)CC1)Nc1nc(-c2ccccc2)cs1`, the inhibition at 20 µM with Peritoneal macrophage [1] stood at 40.5%; with Peritoneal macrophage [2], 68.5%.

`O=C(CCN1CCN(Cc2ccc(F)cc2)CC1)Nc1nc(-c2ccccc2)cs1`: the inhibition at 20 µM with Peritoneal macrophage [1] is 47.9%; in the data set with Peritoneal macrophage [2] it was 70.9%.

In the case of `O=C(CCN1CCN(S(=O)(=O)c2cccc(Cl)c2)CC1)Nc1nc(-c2ccccc2)cs1`, the values for the inhibition at 20 µM in the data set on Peritoneal macrophage [1] and in the data set on Peritoneal macrophage [2] were 32.8% and 61.1%, respectively.

`O=C(CCN1CCN(Cc2ccc(Cl)cc2)CC1)Nc1nc(-c2ccccc2)cs1`: the figures for the inhibition at 20 µM with Peritoneal macrophage [1] and with Peritoneal macrophage [2] were 52.8% and 63.4%, respectively.

Take `O=C(CCN1CCN(Cc2cccc([N+](=O)[O-])c2)CC1)Nc1nc(-c2ccccc2Br)cs1`: the IC50 with Peritoneal macrophage [3] stood at 4.65 µM; in the data set on Peritoneal macrophage [6] it was 5.15 µM. The inhibition entry in the data set with Peritoneal macrophage [3] and in the data set on Peritoneal macrophage [6] was “Dose-dependent effect” in each case. Moreover, the figures for the inhibition at 20 µM in the data set with Peritoneal macrophage [1] and in the data set on Peritoneal macrophage [2] were 83.2% and 86.9%, respectively. The viability at 24 h, 20 µM in data set [4], in data set [5] and in data set [7] was greater than 80% throughout.

For the molecule `O=C(CCN1CCN(Cc2cccc([N+](=O)[O-])c2)CC1)Nc1nc(-c2ccco2)cs1`, the figures for the inhibition at 20 µM in the data set with Peritoneal macrophage [1] and in the data set on Peritoneal macrophage [2] were 65.2% and 78.7%, respectively.

Regarding `O=C(CCN1CCN(Cc2cccc(Cl)c2)CC1)Nc1nc(-c2ccccc2)cs1`, the inhibition at 20 µM with Peritoneal macrophage [1] amounted to 48.8%; with Peritoneal macrophage [2] it was 74.5%.

On to `O=C(CCN1CCN(Cc2cccc([N+](=O)[O-])c2)CC1)Nc1nc(-c2ccc(F)c(F)c2)cs1`, for which the inhibition at 20 µM with Peritoneal macrophage [1] turned out to be 61.8%; in the data set with Peritoneal macrophage [2], 86.7%.

As for `COc1ccc(S(=O)(=O)N2CCN(CCC(=O)Nc3nc(-c4ccccc4)cs3)CC2)cc1OC`, the inhibition at 20 µM with Peritoneal macrophage [1] worked out at 37.2%; in the data set on Peritoneal macrophage [2], 49.5%.

For `CC(C)(C)c1ccc(CN2CCN(CCC(=O)Nc3nc(-c4ccccc4)cs3)CC2)cc1`, the inhibition at 20 µM in the data set on Peritoneal macrophage [1] amounted to 12%; with Peritoneal macrophage [2], 51.8%.

On to `COc1cc(CN2CCN(CCC(=O)Nc3nc(-c4ccccc4)cs3)CC2)cc(OC)c1`, for which the inhibition at 20 µM was 34.2% in the data set with Peritoneal macrophage [1] and 57% in the data set with Peritoneal macrophage [2].

Turning to `O=C(CCN1CCN(Cc2ccc(C(F)(F)F)cc2)CC1)Nc1nc(-c2ccccc2)cs1`, the inhibition at 20 µM stood at 55.3% with Peritoneal macrophage [1] and 69% with Peritoneal macrophage [2].

As for `O=C(CCN1CCN(S(=O)(=O)c2ccc(C(F)(F)F)cc2)CC1)Nc1nc(-c2ccccc2)cs1`, in the data set with Peritoneal macrophage [1], the inhibition at 20 µM was determined as 2.54%. In the data set on Peritoneal macrophage [2], the inhibition result is “inactive”.

Take `O=C(CCN1CCN(Cc2cccc([N+](=O)[O-])c2)CC1)Nc1nc(-c2cccc(Br)c2)cs1`: the inhibition at 20 µM with Peritoneal macrophage [1] is 52.5%; with Peritoneal macrophage [2], 73%.

As for `O=C(CCN1CCN(Cc2cccc([N+](=O)[O-])c2)CC1)Nc1nc(-c2ccc(C3CCCCC3)cc2)cs1`, the inhibition at 20 µM in the data set on Peritoneal macrophage [1] is 19.8%; in the data set with Peritoneal macrophage [2], 28.5%.

As to `O=C(CCN1CCN(S(=O)(=O)c2ccccc2)CC1)Nc1nc(-c2ccccc2)cs1`, the inhibition at 20 µM in the data set with Peritoneal macrophage [1] was determined as 17.6%; in the data set with Peritoneal macrophage [2] it was 29.9%.

As to `O=C(CCN1CCN(Cc2cccc([N+](=O)[O-])c2)CC1)Nc1nc(-c2ccccc2)cs1`, the inhibition at 20 µM in the data set with Peritoneal macrophage [1] was 64.2%; in the data set with Peritoneal macrophage [2], 81.5%.

For `O=C(CCN1CCN(CCc2ccccc2)CC1)Nc1nc(-c2ccccc2)cs1`, the values for the inhibition at 20 µM in the data set on Peritoneal macrophage [1] and with Peritoneal macrophage [2] were 9.1% and 27.4%, respectively.

As for `Cc1ccc(-c2csc(NC(=O)CCN3CCN(Cc4cccc([N+](=O)[O-])c4)CC3)n2)cc1`, the inhibition at 20 µM in the data set on Peritoneal macrophage [1] was 79%; in the data set with Peritoneal macrophage [2], 75.1%.

For `O=C(CCN1CCN(Cc2cccc([N+](=O)[O-])c2)CC1)Nc1nc(-c2ccc(Br)cc2)cs1`, the inhibition at 20 µM is 71.9% with Peritoneal macrophage [1] and 81% with Peritoneal macrophage [2].

On to `N#Cc1ccc(-c2csc(NC(=O)CCN3CCN(Cc4cccc([N+](=O)[O-])c4)CC3)n2)cc1`, for which the inhibition at 20 µM in the data set on Peritoneal macrophage [1] came to 49.7%; in the data set on Peritoneal macrophage [2] it was 50.6%.

With `COc1ccc(-c2csc(NC(=O)CCN3CCN(Cc4cccc([N+](=O)[O-])c4)CC3)n2)cc1`, the inhibition at 20 µM was found to be 73.8% in the data set with Peritoneal macrophage [1] and 82% in the data set on Peritoneal macrophage [2].

For `N#Cc1ccc(CN2CCN(CCC(=O)Nc3nc(-c4ccccc4)cs3)CC2)cc1`, the inhibition at 20 µM in the data set with Peritoneal macrophage [1] amounted to 33.7%; in the data set with Peritoneal macrophage [2] it was 67.3%.

As to `O=C(CCN1CCN(Cc2ccc([N+](=O)[O-])cc2)CC1)Nc1nc(-c2ccccc2)cs1`, the inhibition at 20 µM with Peritoneal macrophage [1] is 56.7%; with Peritoneal macrophage [2] it was 76.8%.

For `CCOc1ccc(-c2csc(NC(=O)CCN3CCN(Cc4cccc([N+](=O)[O-])c4)CC3)n2)cc1`, the inhibition at 20 µM was 74.3% in the data set with Peritoneal macrophage [1] and 85.3% in the data set on Peritoneal macrophage [2].

Consider `O=C(CCN1CCN(Cc2cccc([N+](=O)[O-])c2)CC1)Nc1nc(-c2ccc(Cl)cc2)cs1`, for which the inhibition at 20 µM came out at 58.3% with Peritoneal macrophage [1] and 77.6% in the data set on Peritoneal macrophage [2].

In the case of `Cc1ccc(CN2CCN(CCC(=O)Nc3nc(-c4ccccc4)cs3)CC2)cc1`, the inhibition at 20 µM with Peritoneal macrophage [1] is 27.1%; in the data set on Peritoneal macrophage [2] it was 67.6%.

Consider `O=C(CCN1CCN(S(=O)(=O)c2cc(Cl)cc(Cl)c2)CC1)Nc1nc(-c2ccccc2)cs1`, for which the inhibition at 20 µM amounted to 49.1% in the data set with Peritoneal macrophage [1] and 55.6% in the data set with Peritoneal macrophage [2].

Turning to `O=C(CCN1CCN(Cc2cccc([N+](=O)[O-])c2)CC1)Nc1nc(-c2ccc(F)cc2)cs1`, the inhibition at 20 µM in the data set with Peritoneal macrophage [1] was 65.6%; with Peritoneal macrophage [2] it was 86.4%.

Regarding `O=C(CCN1CCN(Cc2cccc([N+](=O)[O-])c2)CC1)Nc1nc(-c2cccc([N+](=O)[O-])c2)cs1`, the results for the inhibition at 20 µM in the data set on Peritoneal macrophage [1] and in the data set with Peritoneal macrophage [2] were 51.2% and 76.3%, respectively.

For the molecule `COC(=O)c1csc(NC(=O)CCN2CCN(Cc3cccc([N+](=O)[O-])c3)CC2)n1`, the inhibition at 20 µM with Peritoneal macrophage [1] stood at 31.7%; in the data set with Peritoneal macrophage [2], 56.3%.

As for `COc1ccc(S(=O)(=O)N2CCN(CCC(=O)Nc3nc(-c4ccccc4)cs3)CC2)cc1`, the values for the inhibition at 20 µM with Peritoneal macrophage [1] and in the data set with Peritoneal macrophage [2] were 33.1% and 35.6%, respectively.

With `O=C(CCN1CCN(Cc2cccc([N+](=O)[O-])c2)CC1)Nc1nc(C2CCC2)cs1`, the inhibition at 20 µM came out at 61.4% with Peritoneal macrophage [1] and 66.3% in the data set with Peritoneal macrophage [2].

Take `O=C(CCN1CCN(S(=O)(=O)c2ccc(Cl)cc2)CC1)Nc1nc(-c2ccccc2)cs1`: the inhibition at 20 µM in the data set with Peritoneal macrophage [1] was determined as 37.6%; in the data set with Peritoneal macrophage [2], 70.3%.

As usually defined, the inhibition is how much of the control response was suppressed. What is called IC50 is the concentration at which inhibition is half-maximal.
